Measurements from US20230119894A1, “THERAPEUTIC OR PROPHYLACTIC METHOD FOR DIABETES USING COMBINATION MEDICINE” (Japan Tobacco Inc., priority 2019, published 2023).
Marks after values point to notes of the source that are not given here.

How the values were obtained:
[1] = tested on: glucose-loaded SD rats; assay: OGTT (Oral Glucose Tolerance Test), Test Example 2; type: in vivo, rat; details: male SD rats; 1, 3, or 10 mg/kg oral, 16 hours before glucose load; compared to vehicle, FIG. 1
Method: Vehicle (0.5% methylcellulose solution) or Compound 1 (1, 3, or 10 mg/kg) suspended in a 0.5% methylcellulose solution was orally administered in 5 mL/kg to an about 4-hour-fasted male SD rat (8-week old, Nihon Charles River K.K., 6 cases for each group).
Statistical analyses were based on Steel's multiple test. The significance level was two-sided 5%.

[2] = tested on: glucose-loaded SD rats; assay: OGTT (Oral Glucose Tolerance Test), Test Example 3; type: in vivo, rat; details: male SD rats; 3 mg/kg oral, 16 hours before glucose load; compared to vehicle, FIG. 2
Method: Vehicle (0.5% methylcellulose solution), or Compound 1, Compound A, or Compound B (3 mg/kg each) suspended in a 0.5% methylcellulose solution was orally administered in 5 mL/kg to an about 4-hour-fasted male SD rat (8-week old, Nihon Charles River K.K., 5 cases for each group).
Statistical analyses were based on Dunnett's multiple group test. The significance level was two-sided 5%.

[3] = tested on: Salmonella typhimurium TA98; assay: Ames test (reverse mutation test), TA98; details: TA98
Method: (§1) Metabolites 1, 3, and 5 and Metabolites C to H were each tested herein. The purpose of this test is to evaluate the potential of each metabolite to induce reverse mutations in the standard strains of Salmonella typhimurium (TA98, TA1537, TA100, and TA1535) and Escherichia coli (WP2uvrA), in either the presence or absence of a rat liver metabolic activation system (S9 mix).
(§2) The solvent used herein was dimethyl sulfoxide (DMSO, 100 μL/plate).
(§3) The test was performed by the pre-incubation method with or without S9 mix. When the test was performed without S9 mix, sodium phosphate buffer solution (pH 7.4) was added.
(§4) 0.5 mL of S9 mix or 0.5 mL of 0.1 mol/L sodium phosphate buffer solution (pH 7.4), and 0.1 mL of the bacterial culture solution were added to a test tube containing 0.1 mL of the negative control formulation (DMSO alone), the metabolite, or the positive control formulation. The mixtures were pre-incubated at 37° C. for 20 minutes while shaking. After the pre-incubation period, 2 mL of top agar were added and the mixtures were vortex-mixed and seeded onto plates. Two plates per treatment were used. Each plate was incubated at 37±1° C. for 48 hours or more and the revertant colonies were counted. The mean number of revertant colonies for each treatment plate was then calculated. […] Evaluation was based on mean values with no statistical comparisons being used.

[4] = tested on: Salmonella typhimurium TA1537; assay: Ames test (reverse mutation test), TA1537; details: TA1537
Method: as §1, §2, §3, §4

[5] = tested on: Salmonella typhimurium TA100; assay: Ames test (reverse mutation test), TA100; details: TA100
Method: as §1, §2, §3, §4

[6] = tested on: Salmonella typhimurium TA1535; assay: Ames test (reverse mutation test), TA1535
Method: as §1, §2, §3, §4

[7] = tested on: Escherichia coli WP2uvrA; assay: Ames test (reverse mutation test), WP2uvrA; type: cell-based; details: WP2uvrA

## C[C@H]1C(=O)NC[C@@H]1C(=O)Nc1cc(-c2cc(F)cc(OC(C)(C)C)c2)n(C(F)(F)F)n1 [Example 1, (3R,4R)—N-(5-(3-(tert-butoxy)-5-fluorophenyl)-1-(trifluoromethyl)-1H-pyrazol-3-yl)-4-methyl-5-oxopyrrolidine-3-carboxamide]
[1]
  blood glucose level after the glucose load (Δ AUC 0-120 minutes, % of Vehicle): significantly reduced
[2]
  blood glucose level after the glucose load (Δ AUC 0-120 minutes, % of Vehicle): significantly reduced

## Nc1cc(-c2cc(F)cc(OC(F)(F)F)c2)n(-c2cncc(F)c2)n1 [Metabolite 3]
[3]; S9 mix +, 6.9 μg/plate
  Number of revertant colonies: 35
[3]; S9 mix +, 21 μg/plate
  Number of revertant colonies: 37
[3]; S9 mix +, 62 μg/plate
  Number of revertant colonies: 35
[3]; S9 mix +, 185 μg/plate
  Number of revertant colonies: 36
[3]; S9 mix +, 556 μg/plate
  Number of revertant colonies: 22*
[3]; S9 mix +, 1667 μg/plate
  Number of revertant colonies: 20*†
[3]; S9 mix +, 5000 μg/plate
  Number of revertant colonies: 16*†
[3]; S9 mix −, 6.9 μg/plate
  Number of revertant colonies: 30
[3]; S9 mix −, 21 μg/plate
  Number of revertant colonies: 30
[3]; S9 mix −, 62 μg/plate
  Number of revertant colonies: 28
[3]; S9 mix −, 185 μg/plate
  Number of revertant colonies: 28
[3]; S9 mix −, 556 μg/plate
  Number of revertant colonies: 12*
[3]; S9 mix −, 1667 μg/plate
  Number of revertant colonies: 9*†
[3]; S9 mix −, 5000 μg/plate
  Number of revertant colonies: 7*†
[4]; S9 mix +, 6.9 μg/plate
  Number of revertant colonies: 12
[4]; S9 mix +, 21 μg/plate
  Number of revertant colonies: 13
[4]; S9 mix +, 62 μg/plate
  Number of revertant colonies: 12
[4]; S9 mix +, 185 μg/plate
  Number of revertant colonies: 12
[4]; S9 mix +, 556 μg/plate
  Number of revertant colonies: 8*
[4]; S9 mix +, 1667 μg/plate
  Number of revertant colonies: 0*†
[4]; S9 mix +, 5000 μg/plate
  Number of revertant colonies: 1*†
[4]; S9 mix −, 6.9 μg/plate
  Number of revertant colonies: 9
[4]; S9 mix −, 21 μg/plate
  Number of revertant colonies: 8
[4]; S9 mix −, 62 μg/plate
  Number of revertant colonies: 8
[4]; S9 mix −, 185 μg/plate
  Number of revertant colonies: 8
[4]; S9 mix −, 556 μg/plate
  Number of revertant colonies: 3*
[4]; S9 mix −, 1667 μg/plate
  Number of revertant colonies: 3*†
[4]; S9 mix −, 5000 μg/plate
  Number of revertant colonies: 2*†
[5]; S9 mix +, 6.9 μg/plate
  Number of revertant colonies: 109
[5]; S9 mix +, 21 μg/plate
  Number of revertant colonies: 119
[5]; S9 mix +, 62 μg/plate
  Number of revertant colonies: 118
[5]; S9 mix +, 185 μg/plate
  Number of revertant colonies: 125
[5]; S9 mix +, 556 μg/plate
  Number of revertant colonies: 115*†
[5]; S9 mix +, 1667 μg/plate
  Number of revertant colonies: 97*†
[5]; S9 mix +, 5000 μg/plate
  Number of revertant colonies: 92*†
[5]; S9 mix −, 6.9 μg/plate
  Number of revertant colonies: 89
[5]; S9 mix −, 21 μg/plate
  Number of revertant colonies: 90
[5]; S9 mix −, 62 μg/plate
  Number of revertant colonies: 87
[5]; S9 mix −, 185 μg/plate
  Number of revertant colonies: 86
[5]; S9 mix −, 556 μg/plate
  Number of revertant colonies: 6*
[5]; S9 mix −, 1667 μg/plate
  Number of revertant colonies: 5*†
[5]; S9 mix −, 5000 μg/plate
  Number of revertant colonies: 5*†
[6]; S9 mix +, 6.9 μg/plate
  Number of revertant colonies: 8
[6]; S9 mix +, 21 μg/plate
  Number of revertant colonies: 9
[6]; S9 mix +, 62 μg/plate
  Number of revertant colonies: 11
[6]; S9 mix +, 185 μg/plate
  Number of revertant colonies: 9
[6]; S9 mix +, 556 μg/plate
  Number of revertant colonies: 4*
[6]; S9 mix +, 1667 μg/plate
  Number of revertant colonies: 3*†
[6]; S9 mix +, 5000 μg/plate
  Number of revertant colonies: 1*†
[6]; S9 mix −, 6.9 μg/plate
  Number of revertant colonies: 9
[6]; S9 mix −, 21 μg/plate
  Number of revertant colonies: 11
[6]; S9 mix −, 62 μg/plate
  Number of revertant colonies: 10
[6]; S9 mix −, 185 μg/plate
  Number of revertant colonies: 8
[6]; S9 mix −, 556 μg/plate
  Number of revertant colonies: 8*
[6]; S9 mix −, 1667 μg/plate
  Number of revertant colonies: 0*†
[6]; S9 mix −, 5000 μg/plate
  Number of revertant colonies: 0*†
[7]; S9 mix +, 6.9 μg/plate
  Number of revertant colonies: 19
[7]; S9 mix +, 21 μg/plate
  Number of revertant colonies: 19
[7]; S9 mix +, 62 μg/plate
  Number of revertant colonies: 19
[7]; S9 mix +, 185 μg/plate
  Number of revertant colonies: 19
[7]; S9 mix +, 556 μg/plate
  Number of revertant colonies: 17*
[7]; S9 mix +, 1667 μg/plate
  Number of revertant colonies: 14*†
[7]; S9 mix +, 5000 μg/plate
  Number of revertant colonies: 9*†
[7]; S9 mix −, 6.9 μg/plate
  Number of revertant colonies: 21
[7]; S9 mix −, 21 μg/plate
  Number of revertant colonies: 16
[7]; S9 mix −, 62 μg/plate
  Number of revertant colonies: 23
[7]; S9 mix −, 185 μg/plate
  Number of revertant colonies: 20
[7]; S9 mix −, 556 μg/plate
  Number of revertant colonies: 16*
[7]; S9 mix −, 1667 μg/plate
  Number of revertant colonies: 13*†
[7]; S9 mix −, 5000 μg/plate
  Number of revertant colonies: 8*†
